Experimental findings from US20100087523A1, “Rupestonic acid derivatives and use thereof” (priority 2008, published 2010) are described below.

Series [1] has as its system A-type flu virus (jifang/90-15).
Series [2] concerns B-type flu virus (jifang/97-13).

Regarding `C=C(C(=O)Nc1ccc(Cl)cc1)C1CCC(C)C2CC(=O)C(C)=C2C1` (stereo not shown) [A-2, N(4-chloro-phenyl)-Rupestonic amide], the “Activity for inhibiting A-type flu viruses SI (selection index, SI = TC50/IC50)” value in series [1] came to 6.3. Also, in series [2], the “Activity for inhibiting B-type flu viruses SI (selection index, SI = TC50/IC50)” value was 4.0.
Turning to `C=C(C(=O)Nc1ccccc1Br)C1CCC(C)C2CC(=O)C(C)=C2C1` (stereo not shown) [A-5, N(2-bromo-phenyl)-Rupestonic amide], the “Activity for inhibiting A-type flu viruses SI (selection index, SI = TC50/IC50)” value in series [1] came out at 3.3.
As to `C=C(C(=O)OCC)C1CCC(C)C2CC(=O)C(C)=C2C1` (stereo not shown) [B-1, Ethyl Rupestonic ester], the “Activity for inhibiting A-type flu viruses SI (selection index, SI = TC50/IC50)” value in series [1] is listed as 4.9. Also, in series [2], the “Activity for inhibiting B-type flu viruses SI (selection index, SI = TC50/IC50)” value was determined as 3.8.
Regarding `C=C(C(=O)Oc1ccc(Cl)cc1)C1CCC(C)C2CC(=O)C(C)=C2C1` (stereo not shown) [B-2, Rupestonic (p-chlorophenyl)-ester], the “Activity for inhibiting A-type flu viruses SI (selection index, SI = TC50/IC50)” value in series [1] is listed as 12.6.
On the same count and under the same terms, with `C=C(C(=O)Oc1ccccc1Cl)C1CCC(C)C2CC(=O)C(C)=C2C1` (stereo not shown) [B-3, Rupestonic (o-chlorophenyl)-ester] the figure was 4.3; with `C=C(C(=O)Oc1ccc(Br)cc1)C1CCC(C)C2CC(=O)C(C)=C2C1` (stereo not shown) [B-4, Rupestonic (p-bromophenyl)-ester], 4.3.
As for `C=C(C(=O)Oc1ccc(C)cc1)C1CCC(C)C2CC(=O)C(C)=C2C1` (stereo not shown) [B-9, Rupestonic (p-methylphenyl)-ester], the “Activity for inhibiting A-type flu viruses SI (selection index, SI = TC50/IC50)” value in series [1] came out at 14.3.
For the compound `C=C(C(=O)OCc1ccc(Cl)cc1)C1CCC(C)C2CC(=O)C(C)=C2C1` (stereo not shown) [B-14, Rupestonic (p-chlorobenzyl)-ester], the “Activity for inhibiting A-type flu viruses SI (selection index, SI = TC50/IC50)” value in series [1] was 3.8. The “Activity for inhibiting B-type flu viruses SI (selection index, SI = TC50/IC50)” value in series [2] was found to be 2.5.
With `C=C(C(=O)OCc1ccc([N+](=O)[O-])cc1)C1CCC(C)C2CC(=O)C(C)=C2C1` (stereo not shown) [B-15, Rupestonic (p-nitryl-benzyl)-ester], the “Activity for inhibiting A-type flu viruses SI (selection index, SI = TC50/IC50)” value in series [1] came to 4.6. The “Activity for inhibiting B-type flu viruses SI (selection index, SI = TC50/IC50)” value in series [2] is on record as 4.6.
As to `C=C(C(=O)OCc1ccccc1Br)C1CCC(C)C2CC(=O)C(C)=C2C1` (stereo not shown) [B-17, Rupestonic (o-bromobenzyl)-ester], the “Activity for inhibiting A-type flu viruses SI (selection index, SI = TC50/IC50)” value in series [1] stood at 3.9. Besides, the “Activity for inhibiting B-type flu viruses SI (selection index, SI = TC50/IC50)” value in series [2] is 2.2.
`C=C(C(=O)O)[C@H]1CC[C@H](C)[C@@H]2CC(=O)C(C)=C2C1` [Compound 1, rupestonic acid]: in series [2], the “Activity for inhibiting B-type flu viruses SI (selection index, SI = TC50/IC50)” value worked out at 9.00.
As to `CCOC(=O)C1=C[C@@H](OC(CC)CC)[C@H](NC(C)=O)[C@@H](N)C1` [Oseltamivir], in series [1], the “Activity for inhibiting A-type flu viruses SI (selection index, SI = TC50/IC50)” value is reported as over 239.1.
Regarding `NC(=O)c1ncn([C@@H]2O[C@H](CO)[C@@H](O)[C@H]2O)n1` [Ribavirin], in series [1], the “Activity for inhibiting A-type flu viruses SI (selection index, SI = TC50/IC50)” value stood at 982.8. Further, the “Activity for inhibiting B-type flu viruses SI (selection index, SI = TC50/IC50)” value in series [2] is 132.1.
